According to patent US20250152504A1, “INTRAUTERINE SYSTEMS COMPRISING ANTI-INFECTIVES FOR STEADY-STATE ACCUMULATION TO DISTAL EXTRAUTERINE TISSUE” (priority 2023, published 2025):
Where two headings read alike, the source gives them in different places.

Tests used:
[1] = In vitro drug release from TPU matrix delivery system prototypes; assay type: physicochemical; conditions: for cumulative release of loaded drug: after 30 days
Experimental: Films were cut into disks with a 1-inch diameter die punch; disks were stacked and placed between two pieces of aluminum foil and compressed under a metal weight on a 120° C. dry bath. Thickness was monitored frequently until it measured 3.5 mm with digital calipers calibrated to 0.01 mm. Devices were cut from thick films using a custom rectangular 3.5 mm×13.3 mm die punch.
All release tests were performed in sink conditions in PBS supplemented with 2% w/v Cremophor® A25/Emulgin® B25. For the first 7-days of drug release testing, 1 mL samples were taken daily; following 7 days, samples were taken every 3-4 days. At all timepoints, bottles were drained and replaced with fresh media following sampling.
A qualification for selecting an optimal TPU for DPV delivery in this application is the time to achieve 50% cumulative release of drug. This is based on the standard use time of hormonal IUDs, which in practice are removed once about half of the initial load of drug is depleted from the device. Here, this standard was used as a benchmark to evaluate the sustained release properties of candidate delivery system designs. […] The fit of first-order release kinetics to the data was assessed. Equations 1 and 2 describe drug release from a system where dissolution is dependent on a concentration gradient.
Where k is the first order rate constant, Ct is the concentration of drug in solution at time t and C0 is the initial concentration of drug.
Where Q is the amount of drug release in time t and kh is the Higuchi release constant.
Based on the best-fit square-root of time relation, T50% was calculated for each TPU. […] Korsmeyer and Peppas provided a method for understanding drug release mechanisms of swelling and non-swelling polymeric systems, given by Equation 4: […]
Where Mt/M∝ is the fraction of drug released at time t, K is the rate constant, and n is the release exponent.

[2] = Post-use assay of residual ARVs in removed IUDs (triple study); assay type: in vivo; conditions: for Average dose / Total DPV released: 28 days
Source text: FIGS. 15A-15C are graphs showing post-use assays of residual anti-retroviral pharmaceutical compositions in removed intrauterine devices, in accordance with the present technology. […]

[3] = Triple active compound (RAL, MVC, ETR) intrauterine system in vivo study, tissue and secretion concentrations; conditions: for concentration at 28 days: 28 days after insertion
Source text: Described herein is a study conducted on an intrauterine system having a plurality of delivery systems (such as shown in FIGS. 1D and 1E). This study included three matrix delivery systems. The first delivery system included raltegravir (RAL), the second delivery system included etravirine (ETR), and the third delivery system included maraviroc (MVC). The intrauterine system was implanted and retained in the uterus of a patient for 28 days.
Multiple samples were taken before, during, and after insertion of the intrauterine system. Plasma samples were taken an hour before insertion, at insertion, 24 hours after insertion, 48 hours after insertion, 72 hours after insertion, 7 days after insertion, 14 days after insertion, 21 days after insertion, and 28 days after insertion (when the intrauterine system was removed). Vaginal swabs were taken an hour before insertion, at 7 days after insertion, 14 days after insertion, 21 days after insertion, and 28 days after insertion. Vaginal biopsies were taken an hour before insertion, 7 days after insertion, and 28 days after insertion. Endometrial and cervical biopsies were taken an hour before insertion and 28 days after insertion. Histology was also performed an hour before insertion, and consistent visual inspection was done throughout for safety.

[4] = In vitro drug release from core-sheath reservoir delivery system prototypes; assay type: physicochemical; conditions: 6 core-sheath reservoir prototypes, core TPU loaded at 1 wt %, three sheath polymers, 100 and 200 μm sheath thickness
Experimental: Reservoir delivery system prototypes were prepared using a heated coextrusion process. Briefly, core polymer (PY-PT43DE20) was melted and homogenized with the appropriate mass of dapivirine to achieve 1 wt % and 30 wt % core polymer loading. […] The inner crosshead diameter was varied mid-extrusion to generate devices with sheath thicknesses ranging from 100-200 μm while retaining a constant outer diameter. Material was cut to the desired length per device (13.33 mm) and in-spec devices were identified based on sheath thickness using brightfield microscopy. Devices were incubated for two weeks at 40° C. to equilibrate drug in the core and sheath compartments.
All release tests were performed in sink conditions in PBS supplemented with 2% w/v Cremophor® A25/Emulgin® B25. For the first 7-days of drug release testing, 1 mL samples were taken daily; following 7 days, samples were taken every 3-4 days. At all timepoints, bottles were drained and replaced with fresh media following sampling. For reservoir delivery system prototypes, three replicates of each formulation were end capped and one device was tested with no end cap to confirm the integrity of the end cap in preventing uncontrolled diffusion form the exposed core.
Both polyether sheath reservoirs (R1 & R2) released DPV faster than polycarbonate sheath reservoirs (R3 & R4). […]

[5] = 1 wt % loading, TPU2 matrix, from best-fit release model
[6] = 1 wt % loading, TPU3 matrix, from best-fit release model
[7] = 1 wt % loading, TPU4 matrix, from best-fit release model
[8] = 1 wt %, TPU4 matrix, total by 30 days
[9] = 16.6 wt % loading, TPU4 matrix, from best-fit release model
[10] = 16.6 wt %, TPU4 matrix, final rate at 30 days, per each ⅓ segment of the device
[11] = 20 wt % matrix, hydrophobic and crystalline TPU, after 20 days

Row | SMILES | T50% [2] [days] | Average dose [2] [µg/day] | Total DPV released [2] [mg] | Actual T50% ([1]; 1 wt % loading, TPU2 matrix) [days] | First-Order: k ([1]; 1 wt % loading, TPU2 matrix) | Higuchi: kH ([1]; 1 wt % loading, TPU2 matrix) | Predicted T50% [1, 5] [days] | Actual T50% ([1]; 1 wt % loading, TPU3 matrix) [days] | First-Order: k ([1]; 1 wt % loading, TPU3 matrix) | Higuchi: kH ([1]; 1 wt % loading, TPU3 matrix) | Korsmeyer-Peppas Constant: n ([1]; 1 wt % loading, TPU3 matrix) | Predicted T50% [1, 6] [days] | First-Order: k ([1]; 1 wt % loading, TPU4 matrix) | Higuchi: kH ([1]; 1 wt % loading, TPU4 matrix) | Korsmeyer-Peppas Constant: n ([1]; 1 wt % loading, TPU4 matrix) | Predicted T50% [1, 7] [days] | cumulative release [1, 8] [%] | First-Order: k ([1]; 16.6 wt % loading, TPU4 matrix) | Higuchi: kH ([1]; 16.6 wt % loading, TPU4 matrix) | Korsmeyer-Peppas Constant: n ([1]; 16.6 wt % loading, TPU4 matrix) | further results
1 | Nc1nc2c(ncn2COCCO)c(=O)[nH]1 [ACV, acyclovir] | – | – | – | – | – | – | – | – | – | – | – | – | – | – | – | – | – | – | – | – | minimum release rate ([1]; 20 wt % in TPU4 matrix, 15 days in vitro dissolution): 59 µg/day; cumulative release ([1]; 20 wt % in TPU4 matrix, after 15 days): 18%; Predicted T50% ([1]; 20 wt % in TPU4 matrix, best-fit in vitro release model): 156 days; maximum release ([1]; High saturation matrixes): 1112 micrograms per day; minimum release ([1]; High saturation matrixes): 109 micrograms per day
2 | Cc1cc(C#N)cc(C)c1Oc1nc(Nc2ccc(C#N)cc2)nc(N)c1Br [ETR, etravirine] | 300 | 15.24 | 0.43 | 13 | 0.002, h^−1 | 0.026, %/h^1/2 | 15.5 | 13 | 0.002, h^−1 | 0.030, %/h^1/2 | 0.585, | 12 | 0.0004, h^−1 | 0.011, %/h^1/2 | 0.535, | 90 | 27.70 | 0.0001, h^−1 | 0.003, %/h^1/2 | 0.599, | Korsmeyer-Peppas Constant: n ([1]; 1 wt % loading, TPU2 matrix): 0.484,; Predicted T50% [1, 9]: 857 days; cumulative release of loaded drug ([1]; 16.6 wt %, TPU4 matrix): 8.5%; release rate [1, 10]: ~14 µg/day; concentration at 28 days ([3]; female, human, endometrium, other: intrauterine (implanted intrauterine system), read-out: tissue concentration, Endometrium): 434 ng/mL; Mean concentration in vaginal secretions ([3]; in vivo): 344.30 ng/mL
3 | Cc1nc(N(C)C(=O)Cc2ccc(-c3ccccn3)cc2)sc1S(N)(=O)=O [PTV, pritelivir] | – | – | – | – | – | – | – | – | – | – | – | – | – | – | – | – | – | – | – | – | daily release [4]: 1 to 40 µg/day; time for half of the original dose to release ([1]; 20 wt % matrix, Higuchi release kinetic analysis): approximately 500 days; cumulative release [1, 11]: approximately 9%; release rate [1, 11]: 30 µg/day; duration of use of the device ([1]; matrix device loaded with 20-30 mg of PTV, tested in vitro for 480 hours): 3-4 years
4 | Cc1nnc(C(=O)NC(C)(C)c2nc(C(=O)NCc3ccc(F)cc3)c(O)c(=O)n2C)o1 [RAL, raltegravir] | 101 | 46.31 | 1.30 | <1 | 0.016, h^−1 | 0.052, %/h^1/2 | 2 | 1 | 0.004, h^−1 | 0.023, %/h^1/2 | 0.201, | 7 | 0.0004, h^−1 | 0.010, %/h^1/2 | 0.333, | 109 | 31.71 | 0.0002, h^−1 | 0.006, %/h^1/2 | 0.455, | time to reach 100% release ([1]; 1 wt %, TPU2 matrix): 7 days; cumulative release of encapsulated drug ([1]; 1 wt %, TPU2 matrix, first 24 hours): approximately 50%; cumulative release of encapsulated drug ([1]; 1 wt %, TPU3 matrix, by 30 days / one month): 100%; cumulative release of encapsulated drug ([1]; 1 wt %, TPU3 matrix, first 24 hours): approximately 50%; Predicted T50% [1, 9]: 251 days; cumulative release of loaded drug ([1]; 16.6 wt %, TPU4 matrix): approximately 18%; release rate [1, 10]: around 22 μg/day; First-Order: k ([1]; 30 wt % loading, TPU4 matrix): 0.0002, h^−1; Higuchi: kH ([1]; 30 wt % loading, TPU4 matrix): 0.005, %/h^1/2; Predicted T50% ([1]; 30 wt % loading, TPU4 matrix, from best-fit release model): 363 days; cumulative release of encapsulated drug ([1]; 30 wt %, TPU4 matrix, at 30 days): approximately 17%; release rate ([1]; 30 wt %, TPU4 matrix, at study terminus (30 days), per each ⅓ segment of the device): 41.13 µg/day; concentration at 7 days ([3]; female, human, in vivo, 7 days after insertion, read-out: tissue concentration, Vagina): 194 ng/mL; concentration at 28 days ([3]; female, human, in vivo, read-out: tissue concentration, Cervix): 237 ng/mL; concentration at 28 days ([3]; female, human, in vivo, read-out: tissue concentration, Endometrium): 237 ng/mL; concentration at 28 days ([3]; female, human, in vivo, read-out: tissue concentration, Rectum): 39.9 ng/mL; concentration at 28 days ([3]; female, human, in vivo, read-out: tissue concentration, Vagina): 253 ng/mL
